Experimental data reported in patent US12180146B2, “Antihypertensive polyol compound and derivative thereof” (TAO PHARMACEUTICAL (SUZHOU) CO., LTD, priority 2020, dated 2024).

Legend:
[1] = test system: spontaneously hypertensive rats (SHR); assay: Antihypertensive activity test: blood pressure and heart rate of spontaneously hypertensive rats (SHR); format: in vivo, rat; details: 200 mg/kg
Procedure, shortened: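 Spontaneously hypertensive rats received compound at 200 mg/kg. SBP and heart rate were measured before and after dosing. A drop in SBP of ≥20 mmHg from baseline counted as effective, and heart-rate changes were tested by paired t-test (P<0.05).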

[2] = test system: hypoxic pulmonary hypertension model rats; assay: Hypoxic pulmonary hypertension model rats, oral (gavage) treatment for 28 days; format: in vivo, SD rats; details: hypoxic PAH rats, po
[3] = after administration (6 h M ± SD), n = 8
[4] = before administration, M ± SD, n = 8

For `CCc1cccc(C(O)CO)c1` (stereo not shown) [Compound 1, 1-(3-ethylphenyl)-1,2-ethylene glycol], the “time after administration of maximum antihypertensive effects” value [1] was 3 h, the “SHR heart rate, time after administration 0 h” value ([1]; 0 h, N = 8) was 356 ± 46.4 beat/min and the “Heart rate Difference before and after administration, 1 h” value ([1]; 1 h) was −9 beat/min. The “SBP Difference before and after administration, 1 h” value ([1]; 1 h) was 16 mmHg, the “SHR heart rate, time after administration 1 h” value ([1]; 1 h, N = 8) was 348 ± 39.3 beat/min and the “SHR blood pressure (SBP), time after administration 1 h” value ([1]; 1 h, n = 8) was 176 ± 9.55 mmHg. The “Heart rate Difference before and after administration, 2 h” value ([1]; 2 h) was 23 beat/min, the “SBP Difference before and after administration, 2 h” value ([1]; 2 h) was 20 mmHg and the “SHR heart rate, time after administration 2 h” value ([1]; 2 h, N = 8) was 380 ± 34.1 beat/min. The “SHR blood pressure (SBP), time after administration 2 h” value ([1]; 2 h, n = 8) was 172 ± 7.36 mmHg, the “Heart rate Difference before and after administration, 3 h” value ([1]; 3 h) was 28 beat/min and the “SBP Difference before and after administration, 3 h” value ([1]; 3 h) was 23 mmHg. The “SHR heart rate, time after administration 3 h” value ([1]; 3 h, N = 8) was 385 ± 31.5 beat/min, the “SHR blood pressure (SBP), time after administration 3 h” value ([1]; 3 h, n = 8) was 169 ± 4.07 mmHg and the “Heart rate Difference before and after administration, 4 h” value ([1]; 4 h) was 28 beat/min. For the same molecule, the “SBP Difference before and after administration, 4 h” value ([1]; 4 h) was 19 mmHg, the “SHR heart rate, time after administration 4 h” value ([1]; 4 h, N = 8) was 385 ± 30.4 beat/min and the “SHR blood pressure (SBP), time after administration 4 h” value ([1]; 4 h, n = 8) was 173 ± 7.15 mmHg. The “Heart rate Difference before and after administration, 5 h” value ([1]; 5 h) was 16 beat/min, the “SBP Difference before and after administration, 5 h” value ([1]; 5 h) was 17 mmHg and the “SHR heart rate, time after administration 5 h” value ([1]; 5 h, N = 8) was 372 ± 28.5 beat/min. The “SHR blood pressure (SBP), time after administration 5 h” value ([1]; 5 h, n = 8) was 175 ± 5.61 mmHg, the “Heart rate Difference before and after administration, 6 h” value ([1]; 6 h) was 17 beat/min and the “SBP Difference before and after administration, 6 h” value ([1]; 6 h) was 11 mmHg. For the same molecule, the “SHR heart rate, time after administration 6 h” value ([1]; 6 h, N = 8) was 373 ± 31.3 beat/min, the “SHR blood pressure (SBP), time after administration 6 h” value ([1]; 6 h, n = 8) was 180 ± 6.66 mmHg and the “Blood pressure (SBP, mmHg) After administration” value [1, 3] was 174 ± 4.01 mmHg. The “Heart rate (beat/min) After administration” value [1, 3] was 368 ± 25.5 beat/min, the “Heart rate Difference (beat/min)” value ([1]; after administration minus baseline (6 h)) was 12 beat/min and the “Blood pressure Difference mmHg” value ([1]; baseline minus after administration (6 h)) was 18 mmHg. The “Blood pressure (SBP, mmHg) Baseline” value [1, 4] was 192 ± 7.98 mmHg, the “Heart rate (beat/min) Baseline” value [1, 4] was 356 ± 46.4 beat/min and the RVSP ([2]; 10 mg/kg) was 70.28 ± 4.64 mmHg. For the same molecule, the mPAP ([2]; 10 mg/kg) was 25.26 ± 3.46 mmHg, the RVHI ([2]; 10 mg/kg, RV/(LV+S)) was 0.467 ± 0.030 and the “2 × MT/ED” value ([2]; 10 mg/kg, medium thickness ratio of small pulmonary arteries) was 0.361 ± 0.020. For the same molecule, the “2 × MT/ED” value ([2]; 25 mg/kg) was 0.323 ± 0.022, the RVHI ([2]; 25 mg/kg) was 0.472 ± 0.026 and the RVSP ([2]; 25 mg/kg) was 71.34 ± 2.12 mmHg. For the same molecule, the mPAP ([2]; 25 mg/kg) was 22.36 ± 1.78 mmHg, the “2 × MT/ED” value ([2]; 50 mg/kg) was 0.304 ± 0.021 and the RVHI ([2]; 50 mg/kg) was 0.456 ± 0.019. The RVSP ([2]; 50 mg/kg) was 67.46 ± 4.28 mmHg, the mPAP ([2]; 50 mg/kg) was 21.66 ± 3.28 mmHg and the “2 × MT/ED” value ([2]; 100 mg/kg) was 0.266 ± 0.014. It also gave an RVHI ([2]; 100 mg/kg) of 0.301 ± 0.017, an RVSP ([2]; 100 mg/kg) of 59.12 ± 2.12 mmHg and a mPAP ([2]; 100 mg/kg) of 15.89 ± 1.12 mmHg. For the same molecule, the “2 × MT/ED” value ([2]; 200 mg/kg) was 0.241 ± 0.011, the RVHI ([2]; 200 mg/kg) was 0.254 ± 0.022 and the RVSP ([2]; 200 mg/kg) was 54.38 ± 2.98 mmHg. For the same molecule, the mPAP ([2]; 200 mg/kg) was 15.21 ± 1.92 mmHg.
